From US20160220464A1 (WUHAN OPTICS VALLEY BRIDGEBIOMED INTERNATIONAL CORPORATION, priority 2013, published 2016)
Like-named read-outs stand apart in the source and are kept apart here.

How the values were obtained:
[1] = Transdermal experiment, modified Franz diffusion pool with HPLC; type: in vitro ADME, mice
Description: To explore the optimized dosage form and preparation technology of BK B2 receptor agonist, we selected YLB-01, which has the long-term stability for preservation, as a sample from three agonists (YLB-01, YLB-02, YLB-03) and prepared three kinds of dosage form, analyzed by transdermal experiments and high-performance liquid phase (HPLC) content analysis. Three dosage forms (liniments, gels and ointments) of […] were prepared in different concentrations (0.03%, 0.3% and 3%). Then, different proportional of transdermal promoters was added to perform transdermal experiments. The transdermal effects of three kinds of YLB-01 formulation were evaluated by the modified Franz diffusion pool. Cumulative transmittance of liniments, gels and ointments in 0.3% concentration of YLB-01 for 9 hours was measured respectively. Results: (1) The best transdermal promoter ratio of liniments, gels and ointments were 2% propylene glycol+2% azone, 4% propylene glycol, and 5% propylene glycol+2% azone. (2) 9 hours of cumulative transmittance of 0.03%, 0.3%, 3% liniments were 4.23%, 10.96% and 12.17%, respectively; 9 hours of cumulative transmittance of 0.03%, 0.3%, 3% gels were 2.29%, 4.43% and 13.57%, respectively; 9 hours of cumulative transmittance of 0.03%, 0.3%, 3% ointments were 2.08%, 1.12% and 0.73%, respectively. Conclusion: The different contents of […] liniments, gels and ointments are all have some transdermal abilities, and the abilities are: liniments>gels>ointments.
To determine the optimal dosage form of YLB-01 and best transdermal promoter, we plan to use transdermal test combined with HPLC content analysis as screening basis, research on dosage forms and transdermal promoter to achieve a stable and reliable preparation. The samples were analyzed by HPLC on an Agilent TC-C18 column (150 mm×4.6 mm, 5 microns). The mobile phases were methanol and 0.02 mol/L potassium dihydrogen phosphate buffer (66:34, pH was adjusted to 4 with phosphoric acid). Flow rate: 1 ml/min; Column temperature: 30° C. Excitation wavelength and fluorescent wavelength of fluorescence detection were 267 nm and 380 nm, respectively. Under this condition, YLB-01 retention time was 3.898 min, target compounds peak shape is good which could be effectively separated, and no impurity peak, baseline is smooth (shown as FIG. 6).
The abdominal hair of mice was removed. The mice were sacrificed by spinal dislocation. The subcutaneous fat was removed, and the depilous skin of abdomen was reserved in 4° C. physiological saline. Skin was fixed between the supply room and reception room facing the supply room. The effective permeability area was 4 cm^2. Receiving liquid was physiological saline, and receiving chamber volume V were 25 ml. 1.0 g of the tested sample was coated evenly on the effective skin surface with the electromagnetic stirrer run at a speed of 300 r/min. To take out the receiving liquid in 1, 2, 3, 4, 5, 6, 7, 8, 9 h, 0.5 ml/h (Complementing the same quantity each time), the samples were centrifuged and the supernatant was took for HPLC analysis.
After the detection, the cumulative transmittance P (%) was calculated:
V: the volume of receiving liquid in receiving room; Ci: drug concentration in receiving liquid between the time to last time of the i time; Cn: drug concentration in the receiving liquid when the n time taking the sample; M: drug content in the sample.

[2] = test system: human aortic smooth muscle cells (HASMC); experiment: PG subtype secretion by EIA in HASMC; type: cell-based; settings: 10 nM, 1 μM BK set as 100%
[3] = target: T1, bradykinin (BK) B2 receptors (Homo sapiens, UniProt P30411); experiment: PG secretion by BK B2 receptor agonists (PG kit, OD), EC50 and Emax; type: cell-based; settings: HASMC; for Emax: relative to BK
T1 construct: The cell strains used in the study were human primary vein endothelial cells (HPVEC) and human aortic smooth muscle cells (HASMC); endogenous in cells; host or cells: human primary vein endothelial cells (HPVEC) and human aortic smooth muscle cells (HASMC)
T1 sequence (P30411 1-391): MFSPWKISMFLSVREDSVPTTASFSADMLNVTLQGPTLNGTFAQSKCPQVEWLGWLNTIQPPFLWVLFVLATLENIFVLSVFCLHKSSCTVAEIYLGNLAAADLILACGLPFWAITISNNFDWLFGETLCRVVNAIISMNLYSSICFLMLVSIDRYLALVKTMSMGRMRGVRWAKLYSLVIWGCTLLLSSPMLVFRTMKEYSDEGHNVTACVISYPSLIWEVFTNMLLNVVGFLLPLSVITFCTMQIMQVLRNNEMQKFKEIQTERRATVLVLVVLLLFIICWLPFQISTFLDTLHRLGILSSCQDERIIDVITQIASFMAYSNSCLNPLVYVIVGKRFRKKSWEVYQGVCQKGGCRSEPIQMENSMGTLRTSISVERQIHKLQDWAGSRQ
Description: Implantation Two cell lines were transferred into T-75 cell culture flask, and then the instructions of PG kit were strictly followed when cells have reached the appropriate density. Day 1 Cells were seeded in 24 well dishes with minimum medium and allowed to adhere overnight. Day 2 Cells were starved in the serum-free conditioned medium. Day 3 Minimum medium were used, and YLB-01, YLB-02 and YLB-03 were added to the medium, in which the concentration was 0.1 nM, 1 nM, 10 nM, 30 nM, 100 nM, 300 nM, 1 μM, 3 μM and 10 μM, respectively; the cells were incubated at 37° C. for 1 h. The supernatant was collected after incubation for later use. Day 4 24 well dishes were washed and then dyed for 45-90 min, and then the OD value was measured for analysis. The cell strains used in the study were human primary vein endothelial cells (HPVEC) and human aortic smooth muscle cells (HASMC).

[4] = test system: human primary vein endothelial cells (HPVEC); experiment: PG subtype secretion by EIA in HPVEC; type: cell-based; settings: 10 nM, 1 μM BK set as 100%
Description: In order to study of prostaglandin subtypes secretion triggered by activation of B2 receptor by these three compounds, human primary vein endothelial cells (HPVEC) and human aortic smooth muscle cells (HASMC) were used for PG secretion, following the same protocol above; 10 nM of these compounds, YLB-1, YLB-2, YLB-3 was added. […] These percentage values above were all calibrated with respect to bradykinin.

For `CNC(=O)c1ccc(CCC(=O)NCC(=O)N(C)c2ccc(Cl)c(COc3cccc4c3nc(OC)n4Cc3ccccn3)c2Cl)cc1` [YLB-01, 4-(3-2-((2,4-dichloro-3-((2-methoxy-1-(pyridine-2ylmethyl)-1H-benzo[d]imidazol-4-yloxy)methyl)phenyl)(methyl)amino-2-oxoethylamino)-3-oxopropyl)-N-methylbenzamid], the “Cumulative Penetration Rate of 9 Hours” value ([1]; gels, 0.03% YLB-01, 4% propylene glycol, 0% azone) was 2.29%, the “Cumulative Penetration Rate of 9 Hours” value ([1]; gels, 0.3% YLB-01, 4% propylene glycol, 0% azone) was 4.43% and the “Cumulative Penetration Rate of 9 Hours” value ([1]; gels, 3% YLB-01, 4% propylene glycol, 0% azone) was 13.57%. For the same compound, the “Cumulative Penetration Rate of 9 Hours” value ([1]; liniments, 0.03% YLB-01, 2% propylene glycol + 2% azone) was 4.23%, the “Cumulative Penetration Rate of 9 Hours” value ([1]; liniments, 0.3% YLB-01, 2% propylene glycol + 2% azone) was 10.96% and the “Cumulative Penetration Rate of 9 Hours” value ([1]; liniments, 3% YLB-01, 2% propylene glycol + 2% azone) was 12.17%. The “Cumulative Penetration Rate of 9 Hours” value ([1]; ointments, 0.03% YLB-01, 5% propylene glycol + 2% azone) was 2.08%, the “Cumulative Penetration Rate of 9 Hours” value ([1]; ointments, 0.3% YLB-01, 5% propylene glycol + 2% azone) was 1.12% and the “Cumulative Penetration Rate of 9 Hours” value ([1]; ointments, 3% YLB-01, 5% propylene glycol + 2% azone) was 0.73%. For the same compound, the PGD2 [2] was “undetectable”, the PGE2 [2] was 34.64 ± 12.27% and the PGF-2a [2] was 5.68 ± 2.08%. It also gave an EC50 ([3]; 1 h incubation at 37° C.) of 24.4 ± 3 nM, an Emax ([3]; read-out: Emax) of 87% and an Emax [3] of 87.79 ± 4.2%. The PGD2 [4] was “undetectable”, the PGE2 [4] was 30.24 ± 5.40% and the PGF-2a [4] was 6.29 ± 1.01%.
